Biological target: T1, Ec YeaWX lysate (Escherichia coli YeaW/YeaX) (Escherichia coli, UniProt P0ABR7)
T1 construct: create a 5′ NdeI restriction site including the ATG start codon of yeaW; create a PstI restriction site just 3′ of the yeaX TAG stop codon; made in house; host or cells: E. coli BL21 (DE3), pET30a, IPTG induction; unpurified French-press lysate supernatant
Test: Inhibition of d9-TMA formation from d9-carnitine in Ec YeaWX lysate (LC-MS/MS)
Assay type: biochemical
Conditions: Ec YeaWX lysate 2.0 mg/mL protein, 250 μM NADPH, 50 μM d9-carnitine chloride, 37° C. for two hours; read-out: TMA Inhibition (IC50, mol/L)
From the text: This example provides an exemplary assay for identifying and characterizing compounds that inhibit the formation of TMA from carnitine.
Escherichia coli BL21*DE3::pET30a-Ec yeaWX #1 (Ec YeaWX) strain was generated as described below. The contiguous Escherichia coli coding sequence yeaW (equivalent to uniprot ID P0ABR7.1 (YeaW) (SEQ ID NO: 2)) and yeaX (equivalent to uniprot ID P76254.1 (YeaX) (SEQ ID NO: 3)) were PCR amplified from Escherichia coli strain K-12 substr. BW25113 genomic DNA. PCR primers (YeaW_Nde_I_fwd2—SEQ ID NO: 4; YeaX_rev2—SEQ ID NO: 5) were designed to create a 5′ NdeI restriction site including the ATG start codon of yeaW and create a PstI restriction site just 3′ of the yeaX TAG stop codon.
The amplicon was restricted and cloned into the NdeI and PstI sites of the plasmid pET30a downstream of the inducible T7 promoter. A blast search of the resulting cloned amplicon DNA sequence (SEQ ID NO: 1) corresponded to nucleotide range 1884665 to 1886810 of Escherichia coli str. K-12 substr. MG1655 (NCBI Accession # NC_000913). The construct was transformed and grown in E. coli BL21 (DE3) and the recombinant yeaWX overexpressed by addition of isopropyl β-D-1-thiogalactopyranoside (IPTG).
The bacteria were grown aerobically in 50 mL LB broth (Difco #244620; 10 g/L Tryptone, 5 g/L yeast extract, 10 g/L NaCl, 50 μg/mL kanamycin), in a 500 mL Erlenmeyer flask. The cultures were inoculated from glycerol stock of BL21*DE3::pET30a-Ec yeaWX #1 strain. Strains were cultured all day at 37° C. with 250 rpm shaking. Two 300 mL Minimal M9 Medium (6 g/L Na2HPO4, 3 g/L KH2PO4, 0.5 g/L NaCl, 1 g/L NH4Cl, 0.1 mM CaCl2, 1 mM MgSO4, 0.2% Dextrose, 1 mg/L Thiamine, 50 μg/mL kanamycin), in 1 L Erlenmeyer flasks, were inoculated with 5 mL of the LB broth day culture and cultured overnight at 37° C. with 250 rpm shaking. The overnight cultures were used to inoculate twelve 1 L cultures of Minimal M9 media in 2.8 L fluted Erlenmeyer flasks to an OD 600 nm of 0.05 (typically approximately 28 mLs), which were grown at 37° C. with 250 rpm shaking until an OD600 of approximately 0.4 was reached. Expression of YeaWX was induced with 1 mM IPTG and the induced cultures were further grown overnight at 37° C. with 250 rpm shaking. The biomass was pelleted by centrifugation at 6000×g for 12 minutes at 4° C. The cell pellet was suspended in 240 mL of ice-cold 1× Phosphate Buffered Saline (Ca^2+ and Mg^2+ free). Ninety micrograms of Lysozyme (Sigma # L6876 Lot # SLBG8654V; Sigma-Aldrich Corp., St. Louis, Mo.) was added and incubated with 320 rpm shaking for 30 minutes at 4° C. Lysis was achieved via French press with a 4° C. prechilled 1″ diameter chamber at 1000 psi (high ratio; internal PSI equivalent ˜16000). The lysate was centrifuged at 6,000×g for 12 minutes at 4° C. to pellet extra debris. Glycerol was added to the centrifuged lysate supernatant at a final concentration of 15% A protein concentration of the centrifuged lysate supernatant was determined by a BCA Protein Assay Kit (Pierce #23225), typically in the 2.5 to 4.5 mg/ml range. The centrifuged Ec YeaWX lysate supernatant was aliquoted into 20 mL volumes and stored frozen at −80° C.
Ec YeaWX lysate was diluted to 2.0 mg/mL protein with 1× Dulbecco's phosphate buffered saline (DPBS) plus 15% glycerol. Nicotinamide adenine dinucleotide phosphate (NADPH) was added to 250 μM. One hundred and fifty microliters of Ec YeaWX lysate was dispensed into a deep-well plate (polypropylene, 2 mL volume, Corning Axygen catalogue # P-DW-20-C). […] The plates were agitated on a plate shaker for 1 minute. d9-carnitine chloride (1.5 μL of 5 mM) was added to all wells to reach a final d9-carnitine chloride concentration of 50 μM.
The plates were again agitated on a plate shaker for 1 minute and incubated at 37° C. for two hours. After incubation, 1.5 μL of formic acid was added to each well (final concentration=1% formic acid). The plates were agitated on a plate shaker for 1 minute and placed on ice. […]

T1 sequence (P0ABR7 whole entry): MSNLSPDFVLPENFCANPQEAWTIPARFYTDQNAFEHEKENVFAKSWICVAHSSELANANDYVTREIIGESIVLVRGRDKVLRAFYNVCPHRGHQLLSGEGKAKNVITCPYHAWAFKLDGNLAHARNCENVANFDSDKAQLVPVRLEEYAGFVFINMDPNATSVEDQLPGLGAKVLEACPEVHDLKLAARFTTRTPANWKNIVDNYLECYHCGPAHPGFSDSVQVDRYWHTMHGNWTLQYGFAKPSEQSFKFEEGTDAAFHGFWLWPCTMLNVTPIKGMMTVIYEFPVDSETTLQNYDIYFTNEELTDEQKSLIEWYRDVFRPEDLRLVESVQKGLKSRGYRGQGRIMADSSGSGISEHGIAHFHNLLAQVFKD

Molecule	IC50
S=C=N[C@@H]1C[C@H]2CC[C@@H]1C2 (relative stereo) [Compound 29, exo-2-Norbornyl-isothiocyanate]	21.6 µM
COc1ccc(C)cc1N=C=S [Compound 1, 2-Methoxy-5-methylphenyl isothiocyanate]	61.6 µM
CC(C)(C)N=C=S [Compound 2, tert-Butyl isothiocyanate]	> 1000 µM
Cc1cccc(N=C=S)c1 [Compound 3, m-Tolyl isothiocyanate]	14.5 µM
CSc1ccc(N=C=S)cc1 [Compound 4, 4-(Methylthio)phenyl isothiocyanate]	10.8 µM
S=C=NCc1ccccc1 [Compound 5, Benzyl isothiocyanate]	8.37 µM
CCCCCN=C=S [Compound 6, 1-pentyl isothiocyanate]	32.2 µM
CCN(CC)CCCN=C=S [Compound 7, 3-(Diethylamino)propyl isothiocyanate]	146 µM
S=C=NCC1CCCCC1 [Compound 8, Cyclohexylmethyl isothiocyanate]	38.1 µM
S=C=NCCc1ccc(Cl)cc1 [Compound 9, 2-(4-Chlorophenethyl) isothiocyanate]	12.7 µM
CCC(C)N=C=S (stereo not drawn) [Compound 10, sec-butyl isothiocyanate]	146 µM
CC(C)CN=C=S [Compound 12, Isobutyl isothiocyanate]	74.5 µM
CCCCN=C=S [Compound 13, Butyl isothiocyanate]	63.6 µM
CC(C)N=C=S [Compound 15, Isopropyl isothiocyanate]	200 µM
CC(C)CCN=C=S [Compound 16, 1-isothiocyanato-3-methylbutane]	75.9 µM
CCCCCCN=C=S [Compound 17, Hexyl isothiocyanate]	43.5 µM
S=C=Nc1ccccc1 [Compound 18, Phenyl isothiocyanate]	6.45 µM
S=C=Nc1cccc2ccccc12 [Compound 19, 1-Naphthyl isothiocyanate]	12.5 µM
S=C=Nc1ccc(Br)cc1 [Compound 20, 4-Bromophenyl isothiocyanate]	4.72 µM
O=C(N=C=S)c1ccccc1 [Compound 21, Benzoyl isothiocyanate]	138 µM
CC(C)(C)OC(=O)NCCCCN=C=S [Compound 22, N-Boc-4-isothiocyanatobutylamine]	17.7 µM

Molecule	IC50
CC(C)(C)OC(=O)Nc1ccc(N=C=S)cc1 [Compound 23, N-Boc-4-isothiocyanatoaniline]	15.7 µM
S=C=NCCCN1CCOCC1 [Compound 24, 3-(4-Morpholino)propyl isothiocyanate]	68.5 µM
S=C=NCCN1CCOCC1 [Compound 25, 2-(4-Morpholino)ethyl isothiocyanate]	69 µM
C[C@H](N=C=S)c1ccccc1 [Compound 26, (S)-(+)-alpha-Methylbenzyl isothiocyanate]	7.34 µM
S=C=Nc1ccc(Cl)cc1 [Compound 27, 4-Chlorophenyl isothiocyanate]	4.57 µM
COc1ccc(N=C=S)cc1 [Compound 28, 4-Methoxyphenyl isothiocyanate]	5.76 µM
S=C=NC1CCCCC1 [Compound 30, Cyclohexyl isothiocyanate]	38.8 µM
CCc1ccc(N=C=S)cc1 [Compound 31, 4-Ethylphenyl isothiocyanate]	17.3 µM
COc1ccccc1N=C=S [Compound 32, 2-Methoxyphenyl isothiocyanate]	33.3 µM
COc1ccc(OC)c(N=C=S)c1 [Compound 33, 2,5-Dimethoxyphenyl isothiocyanate]	47.7 µM
COc1cccc(N=C=S)c1 [Compound 34, 3-Methoxyphenyl isothiocyanate]	9.59 µM
S=C=NCCN1CCCCC1 [Compound 35, 2-Piperidinoethyl isothiocyanate]	104 µM
CCOC(=O)CN=C=S [Compound 36, Ethyl isothiocyanatoacetate]	30 µM
CCCCCC12CCC(C(=O)Oc3ccc(N=C=S)cc3)(CC1)CC2 [Compound 37, 4-Isothiocyanatophenyl 4-pentylbicyclo[2.2.2] octane-1-carboxylate]	> 1000 µM
S=C=NC(c1ccccc1)c1ccccc1 [Compound 38, Benzhydryl isothiocyanate]	3.05 µM
CC(=O)O[C@H]1[C@H](OC(C)=O)[C@@H](N=C=S)OC[C@H]1OC(C)=O [Compound 39, 2,3,4-Tri-O-acetyl-α-D-arabinopyranosyl isothiocyanate]	50.1 µM
CCN(CC)CCN=C=S [Compound 40, Ethanamine, N,N-diethyl-2-isothiocyanato]	320 µM
CN(C)CCCN=C=S [Compound 41, 3-isothiocyanato-N,N-dimethyl-1-Propanamine]	320 µM
CN(C)CCN=C=S [Compound 42, 2-Isothiocyanato-N,N-dimethylethanamine]	164 µM
Ethyl isothiocyanate [Compound 11]	82.2 µM
Methyl isothiocyanate [Compound 14]	149 µM

Source: patent publication US10786479B2, “Methods for inhibiting conversion of carnitine to trimethylamine (TMA)” (The Procter & Gamble Company, priority 2015, dated 2020)
